Values of other authors, collected in patent US7270977B2, “Polypeptides for identifying fungicidally active compounds” (priority 2001, dated 2007).
Entries after “also recorded” stand apart in the source; their conditions may differ.

What was measured:
[1] = test system: Cryptococcus neoformans; details: in words; cited from earlier work
[2] = biological target: recombinant IMPDH from Pneumocystis carinii (Pneumocystis carinii, UniProt Q12658); details: recombinant P. carinii IMPDH; read-out: concentration resulting in 50% inhibition of the activity of the recombinant IMPDH; cited from earlier work
[3] = test system: Candida guilliermondii; details: in words; cited from earlier work
[4] = test system: Hansenula anomala; details: in words; cited from earlier work
[5] = test system: S. cerevisiae; details: in words; cited from earlier work
[6] = test system: Candida pseudotropicalis; details: in words; cited from earlier work
[7] = test system: C. albicans cells; details: cited from earlier work; for effect on C. albicans: in words
[8] = test system: Candida krusei; details: in words; cited from earlier work

Sequence of recombinant IMPDH from Pneumocystis carinii (Q12658 76-529): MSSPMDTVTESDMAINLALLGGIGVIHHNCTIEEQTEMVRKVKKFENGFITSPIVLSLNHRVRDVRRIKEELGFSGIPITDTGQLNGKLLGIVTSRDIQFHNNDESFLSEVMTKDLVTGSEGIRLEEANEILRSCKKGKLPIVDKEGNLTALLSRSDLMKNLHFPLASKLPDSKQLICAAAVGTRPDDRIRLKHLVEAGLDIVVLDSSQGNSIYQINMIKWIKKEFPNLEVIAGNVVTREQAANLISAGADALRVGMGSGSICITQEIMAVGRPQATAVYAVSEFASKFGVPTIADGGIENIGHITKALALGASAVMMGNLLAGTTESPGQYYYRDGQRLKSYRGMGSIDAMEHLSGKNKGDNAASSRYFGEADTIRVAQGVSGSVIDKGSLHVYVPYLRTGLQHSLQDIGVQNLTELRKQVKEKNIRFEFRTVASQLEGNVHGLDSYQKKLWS

SMILES | effect on growth in vitro [1] | IC50 [2] [µM] | effect on growth in vitro [3] | effect on growth in vitro [4] | effect on growth in vitro [5] | effect on growth in vitro [6] | effect on C. albicans [7] | concentration inhibiting growth of C. albicans cells ([7]; wild-type cells) [µg/mL] | effect on growth in vitro [8]
COc1c(C)c2c(c(O)c1C/C=C(\C)CCC(=O)O)C(=O)OC2 [mycophenolic acid] | inhibits in vitro the growth | 25 | ineffective | ineffective | ineffective; also recorded: no effect | ineffective | inhibits in vitro the growth; also recorded: acts fungistatically | 1 | ineffective
NC(=O)c1ncn([C@@H]2O[C@H](CO)[C@@H](O)[C@H]2O)c1O [mizoribine] |  |  |  |  |  |  | virtually ineffective |  | 
